In US11453689B2, “3-pyrrolidine-indole derivatives as serotonergic psychedelic agents for the treatment of CNS disorders” (Mindset Pharma Inc., priority 2020, dated 2022):
Read-outs that look alike come from different tables or passages of the source.

Key:
[1] = In vivo pharmacokinetics in male SD rats (IV and PO); details: rat; for AUC(0-inf) / C0 / clearance / AUC(0-t) / half-life / MRT inf / Vd / Cmax / Tmax / bioavailability: male, SD, plasma; for AUC(0-t): read-out: AUC0-tlast; for half-life: read-out: Apparent t1/2 (converted); for MRT inf: read-out: MRT0-inf; for Vd: read-out: Vss; for bioavailability: read-out: F (bioavailability)
Procedure: Example 26: In Vivo Assessment of the Pharmacokinetics in Mice and Rats Formulations were administered intravenously (i.v.) via the tail vein or orally (p.o.) by gavage with disposable feeding needles. i. Analysis software: Phoenix® WinNonlin® 8.2 (Pharsight, Certara, Mountainview, Calif.) ii. Analysis methods: non-compartmental analysis, linear up/log down trapezoidal rule iii. PK parameters: C0, t1/2, AUC0-tlast. AUC0-∞, CL, Vss, MRT, tmax(po), Cmax(po), F, as appropriate • C0 concentration extrapolated to time zero following an i.v. dose • tmax time at which maximum concentration is observed • Cmax maximum observed concentration • Apparent t1/2 apparent terminal half-life • AUC0-tlast area under the concentration vs time curve from time 0 to the time of the last measurable concentration • AUC0-inf area under the concentration vs time curve from time 0 to infinity • CL systemic clearance • MRT0-inf mean residence time from time zero to infinity • Vss steady-state volume of distribution • F bioavailability=(Dose^iv*AUC^po)/(Dose^po*AUC^iv)*100

[2] = target: human 5-HT2A receptor (Homo sapiens (Human), UniProt P28223); test: Radioligand ([3H]-ketanserin) binding assay on human 5-HT2A receptor
Procedure: i. Prepare the assay buffer following the table below;
ii. Preparation of 8 doses of reference and exemplary test compounds starting from 10 mM stock solution as requested by 5-fold serial dilutions with 100%;
iii. […] a. Add 50 μl/well of 0.5% (v/v) PEI to UniFilter-96 GF/B plates. Seal the plates and incubate at 4° C. for 3 hrs; b. After incubation, wash the plates 3 times with ice-cold wash buffer (50 mM Tris, pH7.4);
iv. Preparation of assay plates: a. Dilute cell membrane with assay buffer and add 330 μl/well to 96 round deep well plates to reach a concentration of 20 μg/well; b. Prepare 8 concentrations of reference or exemplary test compounds and add 110 μl/well to 96 round deep well plates; c. Dilute [3H]-ketanserin with assay buffer to 5 nM (5× final concentration) and add 110 μl/well to 96 round deep well plates.
v. Centrifuge the plate at 1000 rpm for 30 secs and then agitate at 600 rpm, R.T. for 5 min.
vi. Seal the plates and incubate the plate at 27° C. for 90 min.
vii. Stop the incubation by vacuum filtration onto GF/B filter plates followed by 4 times washing with ice-cold wash buffer (50 mM Tris, pH7.4).
ix. Seal the filter plates and add 40 μl/well of scintillation cocktail.
x. Read the plate by using a Microbeta2 microplate counter.
For reference and exemplary test compounds, the results are expressed as % Inhibition, using the normalization equation: N=100−100×(U−C2)/(C1−C2), where U is the unknown value, C1 is the average of high controls, and C2 is the average of low controls. The IC50 is determined by fitting percentage of inhibition as a function of compound concentrations with Hill equation using XLfit.

[3] = Rat liver microsomes stability with NADPH; details: for half-life at 2 μM / microsomal CLint at 2 μM: male, rat, microsomes; for Remaining Percentage (%) after 60 min, Rat: rat liver microsomes, with NADPH, 2 μM
Procedure: The objective of this study was to estimate in vitro metabolic stability of exemplary compounds in pooled human, male rat and male mouse liver microsomes. The concentrations of exemplary compounds in reaction systems were evaluated by LC-MS/MS for estimating the stability in pooled human, male rat and male mouse liver microsomes. The in vitro intrinsic clearances of test compounds were determined as well.
A master solution in the “Incubation Plate” containing phosphate buffer, ultra-pure H2O, MgCl2 solution and liver microsomes was made according to Table 3. The mixture was pre-warmed at 37° C. water bath for 5 minutes.
40 μL of 10 mM NADPH solution was added to each well. The final concentration of NADPH was 1 mM. The negative control samples were prepared by replacing NADPH with 40 μL of ultra-pure H2O. Samples were prepared in duplicate. Negative controls were prepared in singlet.
The reaction was started with the addition of 4 μL of 200 μM exemplary test compounds or control compounds to each master solution to get the final concentration of 2 μM. This study was performed in duplicate.
Aliquots of 50 μL were taken from the reaction solution at 0, 15, 30, 45 and 60 minutes. The reaction solutions were stopped by the addition of 4 volumes of cold methanol with IS (100 nM alprazolam, 200 nM imipramine, 200 nM labetalol and 2 μM ketoprofen). Samples were centrifuged at 3,220 g for 40 minutes. Aliquot of 90 μL of the supernatant was mixed with 90 μL of ultra-pure H2O and then was used for LC-MS/MS analysis.
LC/MS analysis was performed for all samples from this study using a Shimadzu liquid chromatograph separation system equipped with degasser DGU-20A5R; solvent delivery unit LC-30AD; system controller SIL-30AC; column oven CTO-30A; CTC Analytics HTC PAL System. Mass spectrometric analysis was performed using an Triple Quad™ 5500 instrument.
All calculations were carried out using Microsoft Excel. Peak areas were determined from extracted ion chromatograms. The slope value, k, was determined by linear regression of the natural logarithm of the remaining percentage of the parent drug vs. incubation time curve.
Conversion of the in vitro t1/2 (min) into the in vitro intrinsic clearance (in vitro CLint, in μL/min/mg proteins) was done using the following equation (mean of duplicate determinations): […]

Structure (SMILES) | AUC(0-inf) ([1]; IV, 0.3 mg/kg) [ng·h/mL] | C0 ([1]; IV, 0.3 mg/kg) [ng/mL] | clearance ([1]; IV, 0.3 mg/kg) [mL/min/kg] | AUC(0-t) ([1]; IV, 0.3 mg/kg) [ng·h/mL] | half-life ([1]; IV, 0.3 mg/kg) [min] | MRT inf ([1]; IV, 0.3 mg/kg) [min] | Vd ([1]; IV, 0.3 mg/kg) [L/kg] | AUC(0-inf) ([1]; PO, 3 mg/kg) [ng·h/mL] | Cmax ([1]; PO, 3 mg/kg) [ng/mL] | Tmax ([1]; PO, 3 mg/kg) [min] | AUC(0-t) ([1]; PO, 3 mg/kg) [ng·h/mL] | half-life ([1]; PO, 3 mg/kg) [min] | bioavailability ([1]; PO, 3 mg/kg) [%] | MRT inf ([1]; PO, 3 mg/kg) [min] | AUC0-inf/Dose ([1]; IV, 0.3 mg/kg) [kg·ng·h/mL/mg] | AUC0-inf/Dose ([1]; PO, 3 mg/kg) [kg·ng·h/mL/mg] | Cmax/Dose ([1]; PO, 3 mg/kg) [kg·ng/mL/mg] | IC50 [2] [nM] | half-life at 2 μM [3] [min] | microsomal CLint at 2 μM [3] [µL/min/mg] | also measured
[2H]C([2H])([2H])N1CCC[C@@H]1Cc1c[nH]c2cccc(O)c12 [Compound I-2, (R)-3-((1-(methyl-d3)pyrrolidin-2-yl)methyl)-1H-indol-4-ol] | 28.7 ± 3.82 | 77.4 ± 7.22 | 177 | 27.6 ± 3.27 | 35.6 ± 15.7 | 36.5 ± 5.9 | 6.45 ± 1.4 | 419 ± 56.1 | 201 ± 50.9 | 20 ± 8.64 | 409 ± 46.1 | 161 ± 117 | 146 ± 19.5 | 137 ± 34 | 95.6 ± 12.7 | 140 ± 18.7 | 66.9 ± 17.0 | < 500 | 37.6 | 36.8 | Remaining Percentage (%) after 60 min, Rat [3]: 33.13%
[2H]C([2H])(c1c[nH]c2cccc(OC)c12)[C@H]1CCCN1C([2H])([2H])[2H] [Compound I-39, (R)-4-methoxy-3-((1-(methyl-d3)pyrrolidin-2-yl)methyl-d2)-1H-indole] | 26.5 ± 3.62 | 50.8 ± 4.63 | 192 | 25.9 ± 3.49 | 46 ± 2.21 | 52.9 ± 1.79 | 10.1 ± 1.01 | 36.5 | 14.8 ± 3.61 | 200 ± 139 | 1.48 | 88.8 ± 48.8 | 19.6 ± 10.3 | 191 | 88.3 ± 12.1 | 17.3 ± 9.09 | 4.92 ± 1.20 | 500 to 5000 | 12.2 | 113 | Remaining Percentage (%) after 60 min, Rat [3]: 3.34%
[2H]C([2H])(c1c[nH]c2cccc(O)c12)[C@H]1CCCN1C([2H])([2H])[2H] [Compound I-44, (R)-3-((1-(methyl-d3)pyrrolidin-2-yl)methyl-d2)-1H-indol-4-ol] | 27.3 ± 0.413 | 70.2 ± 2.67 | 183 | 26.4 ± 0.186 | 25.8 ± 2.23 | 31.7 ± 1.53 | 5.8 ± 0.196 | 392 ± 109 | 182 ± 107 | 30 ± 26 | 384 ± 98.9 | 195 ± 81.6 | 144 ± 40.1 | 188 ± 91.2 | 91.0 ± 1.38 | 131 ± 36.5 | 60.7 ± 35.5 | < 500 | 36.5 | 38 | Remaining Percentage (%) after 60 min, Rat [3]: 32.00%
